From patent publication US20240415778A1, “ORAL PREPARATION CONTAINING PROGESTOGEN, AND PREPARATION METHOD AND USE” (priority 2021, published 2024)
Entries after “also recorded” stand apart in the source; their conditions may differ. Read-outs that look alike come from different tables or passages of the source.

Tests used:
[1] = Solubility property of 17-HPC in different excipients; assay type: physicochemical
Source text: However, the stable solubility concentrations vary for each excipient, with specific values provided in the last column of Table 2.

[2] = WHO-JECFA database or supplier values; cited from earlier work
[3] = Acceptable daily intake (ADI) of excipients
Source text: The applicant has previously collaborated with other entities to develop an oral formulation of 17-α hydroxyprogesterone and obtained a patent for it.

Row | Suggested working concentrations based on physical stability and saturated solubility results ([1]; Glycerol Monooleate (Maisine ® CC)) [mg/g] | Suggested working concentrations based on physical stability and saturated solubility results ([1]; Mono-Octanoin Glyceride (Capmul 808G)) [mg/g] | Suggested working concentrations based on physical stability and saturated solubility results ([1]; Oleic Acid) [mg/g] | Suggested working concentrations based on physical stability and saturated solubility results ([1]; Oleic Acid Glyceride (Peceol ®)) [mg/g] | Suggested working concentrations based on physical stability and saturated solubility results ([1]; PEG35 Castor Oil (Kolliphor ® ELP)) [mg/g] | Suggested working concentrations based on physical stability and saturated solubility results ([1]; Propylene Glycol Monocaprylate (Capryol ® 90)) [mg/g] | Suggested working concentrations based on physical stability and saturated solubility results ([1]; Propylene Glycol Monolaurate (Lauroglycol ® 90)) [mg/g] | ADI/Weight 60 kg [3] | ADI/Weight 60 kg ([3]; for 60 kg body weight) | Molecule | Suggested working concentrations based on physical stability and saturated solubility results ([1]; Olive Oil) | Suggested working concentrations based on physical stability and saturated solubility results ([1]; PEG15 Hydroxystearate (Kolliphor ® HS15)) | Suggested working concentrations based on physical stability and saturated solubility results ([1]; PEG40 Hydrogenated Castor Oil (Kolliphor ® RH40)) | Acceptable Daily Intake (ADI) [2]
1 | 65 | 120 | 70 | 50 | 30 | 150 | 100 | – | – | CCCCCC(=O)O[C@]1(C(C)=O)CC[C@H]2[C@@H]3CCC4=CC(=O)CC[C@]4(C)[C@H]3CC[C@@]21C [Formulation 17-HPC, hydroxyprogesterone caproate] | insufficient to meet the meaningful solubility concentration required for adult formulations | cannot achieve stable solubility; also recorded: Chemically unstable | cannot achieve stable solubility; also recorded: Chemically unstable | –
2 | – | – | – | – | – | – | – | none | – | CCCCCCCC(=O)OCC(O)CO (centres unmarked) [Glycerol monocaprylate] | – | – | – | none
3 | – | – | – | – | – | – | – | – | 3.36 | Propylene glycol monocaprylate | – | – | – | 56 mg/kg/day
